# Key:
# TNF-α = TNF-α mRNA and protein (ELISA) in frontal cortex and plasma after ethanol intoxication; type: in vivo, Wistar rats; details: OEA pre-treatment
# Procedure: The animals were treated with intragastric (i.g.) ethanol 3 times a day using an i.g. cannula (16G needle, Fisher Scientific, Waltham, Mass., USA), following a protocol based on a slightly modified standard 4-day alcohol intoxication pattern (Bernier et al., 2002a, b) (FIG. 1A). The ethanol doses were administered every 8 h for a total time of 4 days. The rats treated with ethanol received an initial loading dose of 5 g/kg of ethanol in a 30% solution (w/v) and then a maximum maintenance dose of 3 g/kg, which were determined based on blood ethanol levels (BEL). This repeated standard alcohol intoxication paradigm kept BEL intoxication relatively constant in a range of sedation/ataxia (190 to 430 mg/dl, Table 3), according to the 6-point alcohol intoxication behavior scale (Majchrowicz, 1975). The mean dose of ethanol/rat/day (days 1-4) was 7.06 g/kg, similar to other studies (Obernier et al., 2002a, b). OEA (5 mg/kg, i.p., except initial dose of 10 mg/kg i.p.; synthesized as described in Giuffrida et al., 2000) was dissolved in the vehicle (5% Tween-80 in saline solution) and injected 10 minutes before each of the administrations of ethanol by an intragastric gavage. The anti-inflammatory activity of OEA at 10 mg/kg per intraperitoneal route in the frontal cortex before the injection of LPS (Sayd et al., 2014) was previously referred to. In this study, OEA is repeatedly injected as a pre-treatment before each administration of ethanol. […] The quantitative changes in mRNA levels were estimated by means of RT-PCR, carried out in the presence of the SYBR green primer using a 20-L reaction in a Rotor-Gene (Corbett Research®, Mortlake, NSW, Australia). […] The levels of soluble HMGB1, TNF-α, IL-1β and MCP-1 were determined by means of a commercially available enzyme-linked immunosorbent assay kit (ELISA) (Elabscience Biotechnology Co., Ltd., China, for HMGB-1; RayBiotech®, GA, USA, for TNF-α, IL-1β, and MCP-1). The nuclear/cytosol HMGB1 fraction was determined by means of Western blot analysis.
# NF-kB p65 subunit = assay: NF-κB p65 mRNA and nuclear activity (ELISA-based kit) in frontal cortex after ethanol intoxication; type: in vivo, Wistar rats
# Procedure: The animals were treated with intragastric (i.g.) ethanol 3 times a day using an i.g. cannula (16G needle, Fisher Scientific, Waltham, Mass., USA), following a protocol based on a slightly modified standard 4-day alcohol intoxication pattern (Bernier et al., 2002a, b) (FIG. 1A). The ethanol doses were administered every 8 h for a total time of 4 days. The rats treated with ethanol received an initial loading dose of 5 g/kg of ethanol in a 30% solution (w/v) and then a maximum maintenance dose of 3 g/kg, which were determined based on blood ethanol levels (BEL). This repeated standard alcohol intoxication paradigm kept BEL intoxication relatively constant in a range of sedation/ataxia (190 to 430 mg/dl, Table 3), according to the 6-point alcohol intoxication behavior scale (Majchrowicz, 1975). […] The quantitative changes in mRNA levels were estimated by means of RT-PCR, carried out in the presence of the SYBR green primer using a 20-L reaction in a Rotor-Gene (Corbett Research®, Mortlake, NSW, Australia). […] The nuclear extracts of the frontal cortex were incubated with specific NF-kB p65 subunit response element probes, and the binding of p65 to its probe was detected using an antibody specific for this subunit. A secondary antibody labeled by means of horseradish peroxidase was added, and the binding was detected by means of spectrophotometry at 450 nm. […]
structure (smiles),measurement,setting,value
"CCCCCCCC/C=C\CCCCCCCC(=O)NCCO [OEA, oleoylethanolamide]",Ethanol-induced increase in TNF-α protein levels,"TNF-α; frontal cortex, ELISA",not prevented
same,Ethanol-induced increase in TNF-α mRNA,TNF-α; frontal cortex,did not prevent
same,Increase in plasma TNF-α after ethanol intoxication,"TNF-α; plasma, ELISA",partially prevented
same,Ethanol-induced increase in nuclear activity of p65,"NF-kB p65 subunit; frontal cortex nuclear extracts, OEA pre-treatment",counteracted
same,Ethanol-induced increase in p65 mRNA levels,"NF-kB p65 subunit; frontal cortex, OEA pre-administration",partially prevented

# Reference: US20190365675A1, “COMPOSITIONS FOR THE PREVENTION AND/OR TREATMENT OF ALCOHOL USE DISORDERS” (SERVICIO ANDALUZ DE SALUD, priority 2016, published 2019)
